Data from patent publication US20220127297A1, “Novel Antibacterial 3"-Derivatives Of 4,6-Disubstituted 2,5-Dideoxystreptamine Aminoglycoside Antibiotics” (AGILeBiotics B.V., priority 2018, published 2022).
In brackets after ≈: the same amount, converted by molar mass.

How the values were obtained:
[1] = tested on: E. coli ATCC25922 strain; experiment: MIC 50, broth micro-dilution, wild-type Escherichia coli; type: cell-based; details: Escherichia coli, ATCC25922, 18 h, MH2, 18 h
Description: (§1) 3.1 Against E. coli Strains
(§2) Tested reference compounds. Amikacin sulfate (Cat. No. 01693, Chem-Impex), Gentamicin sulfate (Cat. No. G4918, Sigma Aldrich).
(§3) Microbial strains. E. coli ATCC 25922, E. coli ATCC 25922/pET-9b(+), E. coli ATCC 25922/pAT21-1, E. coli ATCC 25922/pBluescript::AAC(6′)-Ie/APH(2″)-Ia, E. coli ATCC 25922/pBlue_lpp_aacC3_rrnC, E. coli ATCC 25922/pSET152.
(§4) Culture media and equipment. BBL™ Mueller Hinton Broth 2 (Lot. BCBW1143, Cat. No. 70192, Sigma); Kanamycin A (Cat. No. A1493, AppliChem); 96-well deep well plate, 1 mL (Cat. No. 0030506.200, Eppendorf); Plate lids (Cat. No. 0030131.525, Eppendorf); 96-well plate, F-bottom (Cat. No. 781602, Brand; Incubator, Infors Multitron Pro); Laminar flow (Heraeus KS12); UV/VIS meter (Eppendorf BioPhotometer Plus); Platereader (Tecan Sunrise).
(§5) Compound preparation. Compounds were prepared in MH2 media at a concentration of 5 mM and stored at 4° C. For testing, solutions of 128 μM were prepared in MH2. Out of these working solutions, 400 μL was transferred to wells in the first column of 96-well deep well plates. Each compound was transferred in triplicate. Plates were previously filled with 200 μL of MH2 media in all wells except for the wells in the first column. After compound and antibiotic addition, the compounds were serial two-fold diluted by transferring 200 μL from the first to the second column, then from the second to the third column and so on. Finally, 200 μL was removed from the last column.
(§6) Inoculum preparation. Microorganisms used were all revived from 20% glycerol (40% v/v glycerol in water was diluted with MH2) storage at −80° C. by inoculating them in 5 mL MH2. inoculums of E. coli containing a plasmid were selected for by adding 50 μg/mL KanaA. The Inoculums were grown to an optical density (measured by UV/Vis spectroscopy) of 0.6-0.8 at 600 nm. Out of these suspensions, actual inoculums were prepared by diluting them to an optical density (OD) of 0.1 in MH2 media. From these inoculums, 200 μL was transferred to each well, resulting in a final compound concentration range of 64 μM-31.3 nM. All plates were incubated at 900 rpm and 70% rH for 18 h at 37° C.
MIC determination. After 18 h of growth, 200 μL was transferred to a 96-well F-bottom plate. The optical density was determined by a plate reader at 600 nm, with 10 s shaking before reading. Triplicate measurements were averaged, and a growth curve was plotted in Microsoft Excel. The first column in which the growth reached half the value of maximum growth was determined as the MIC50 value for that particular compound.
MIC50. The MIC50 of a compound was assigned at which the bacterial growth reached half the value of maximum growth.

[2] = tested on: E. coli (AAC(3)IV); experiment: MIC 50, broth micro-dilution, E. coli expressing AAC(3)IV; type: cell-based, Escherichia coli; details: Escherichia coli, ATCC25922, ATCC25922 harboring plasmid encoding AAC(3)IV
Procedure: (§7) Plasmid transformation. Approximately 500 ng of the pET-9b(+) (Cat. No. 69432-3, Merck), pAT21-1 (provided by Prof. Dr. Patrice Courvalin, M.D., Pasteur Institute, France; prepared according to Trieu-Cuot et. al, Mol. Gen. Genet. 198(2), 348 (1985)), pBluescript::AAC(6′)-Ie/APH(2″)-Ia (provided by Prof. Dr. Sergei Vakulenko, M.D., University of Notre Dame, Ind., USA; prepared according to S. B. Vakulenko et. al., J. Biol. Chem. 287 (52), 43262 (2012)), pBlue_lpp_aacC3_rrnC and pSET152 (Cat. No. PVT3395, Life Science Market; prepared according to Bierman et al., Gene 116 (1), 43 (1992)) plasmids, encoding APH(3′)-Ia (SEQ ID NO:2), APH(3′)-IIIa (SEQ ID NO:3), AAC(6′)Ie-APH(2″)-Ia (SEQ ID NO:4), AAC(3)-III (SEQ ID NO:1), and AAC(3)-IV (SEQ ID NO:5) respectively, were individually incubated in a vial of competent cells for 15 min on ice. The cells were subsequently heated to 42° C. for 90 s, and cooled on ice for 1 min. After addition of 900 μL LB, the cells were incubated for 1 h at 37° C. and 200 rpm. Cells were plated on LB-agar supplemented with 50 μg/mL KanaA and incubated for 18 h at 37° C. The next day, a single colony was inoculated in 5 mL LB supplemented with 50 μg/mL and grown for 18 h at 37° C. and 200 rpm. A 200 μL sample of each culture was diluted with 200 μL of 40% v/v glycerol in water, and stored at −80° C. The plasmid was purified from the remaining culture using the Plasmid Miniprep kit. Plasmid DNA was investigated by Eurofins Genomics (Germany) to confirm the identity of the aminoglycoside resistance genes.
as §1, §2, §3, §4, §5, §6
(§8) MIC determination. After 18 h of growth, 200 μL was transferred to a 96-well F-bottom plate. The optical density was determined by a plate reader at 600 nm, with 10 s shaking before reading. Triplicate measurements were averaged, and a growth curve was plotted in Microsoft Excel. […]

[3] = tested on: E. coli (APH(3′)Ia); experiment: MIC 50, broth micro-dilution, E. coli expressing APH(3′)Ia; type: cell-based, Escherichia coli; details: Escherichia coli, ATCC25922, ATCC25922 harboring plasmid encoding APH(3′)Ia
Procedure: as §7, §1, §2, §3, §4, §5, §6, §8

[4] = tested on: E. coli (APH(3′)IIIa); experiment: MIC 50, broth micro-dilution, E. coli expressing APH(3′)IIIa; type: cell-based, Escherichia coli; details: Escherichia coli, ATCC25922, ATCC25922 harboring plasmid encoding APH(3′)IIIa
Procedure: as §7, §1, §2, §3, §4, §5, §6, §8

[5] = tested on: E. coli (AAC(6′)Ie-APH(2″)Ia); experiment: MIC 50, broth micro-dilution, E. coli expressing AAC(6′)Ie-APH(2″)Ia; type: cell-based, Escherichia coli; details: Escherichia coli, ATCC25922, ATCC25922 harboring plasmid encoding AAC(6′)Ie-APH(2″)Ia
Procedure: as §7, §1, §2, §3, §4, §5, §6, §8

[6] = tested on: E. coli (AAC(3)III); experiment: MIC 50, broth micro-dilution, E. coli expressing AAC(3)III; type: cell-based, Escherichia coli; details: Escherichia coli, ATCC25922, ATCC25922 harboring plasmid encoding AAC(3)III
Description: Cloning resistant enzymes. An Escherichia coli codon optimized gene encoding AAC(3)-III (GenBank acc.nr. X55652.1; SEQ ID NO:1), including a promoter and terminator sequence, was synthesized by Integrated DNA Technologies, Belgium. The synthesized gene and pBluescript II KS(+) plasmid were digested using the restriction enzymes SacI and SalI, and purified from a 1% TBE-agarose gel using the illustra Gel Band purification kit. The purified linear plasmid and T4 DNA ligase were used to ligate aac(3)-III under control of the constitutive lipoprotein Ipp promoter and ribosomal RNA rrnC terminator, resulting in pBlue_Ipp_aacC3_rrnC.
as §7, §1, §2, §3, §4, §5
Inoculum preparation. Microorganisms used were all revived from 20% glycerol (40% v/v glycerol in water was diluted with MH2) storage at −80° C. by inoculating them in 5 mL MH2. inoculums of E. coli containing a plasmid were selected for by adding 50 μg/mL KanaA.

`N=C(NC[C@H]1CCCNC1)NC1[C@@H](O)C(OC2[C@@H](F)[C@H](O[C@H]3OC(CN)[C@@H](O)CC3N)C(N)C[C@H]2NC(=O)[C@@H](O)CCN)O[C@H](CO)[C@H]1O` (stereo partly drawn) [ABX5044, Tobra-AHB-F-Gua (S) piperidin-3-yl methyl] showed an MIC50 [1] of 0.5 µM (≈ 0.355 µg/mL), an MIC50 [2] of 2 µM (≈ 1.42 µg/mL) and an MIC50 [3] of 0.5 to 1 µM (≈ 0.355 to 0.71 µg/mL). The MIC50 [4] was 0.5 µM (≈ 0.355 µg/mL), the MIC50 [5] was 0.5 µM (≈ 0.355 µg/mL) and the MIC50 [6] was 0.5 µM (≈ 0.355 µg/mL).
